Reference: patent publication US11053239B2, “Compounds as BLC-2-selective apoptosis-inducing agents” (Fochon Pharmaceuticals, Ltd., priority 2017, dated 2021)
Read-outs that look alike come from different tables or passages of the source.

Tests used:
RS4; 11 cells = assay: Cell proliferation assay (MTS), RS4; 11 cells; assay type: cell-based; settings: read-out: RS4
How it was run: (§1)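 RS4;11 (30000 cells/well, 72 h) and DOHH2 (5000 cells/well, 120 h) cells in RPMI-1640/10% FBS, treated at 37 °C with compound at 1.5–10000 nM final. Viability by MTS (2 h, SDS stop), absorbance 490 nm minus 650 nm reference; IC50 fitted.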

DOHH2 cells = assay: Cell proliferation assay (MTS), DOHH2 cells; assay type: cell-based
How it was run: as §1

[1] = Homo sapiens, RS4-11, 72 h, RS4, 11 (ATCC CRL-1873) cell proliferation, 30000 cells/well, 72 h, MTS, mechanism-based readout of Bcl-2 inhibition, 11 IC50
[2] = Homo sapiens, DOHH-2, 120 h, DOHH2 (DSMZ ACC 47) cell proliferation, 5000 cells/well, 120 h, MTS, mechanism-based readout of Bcl-2 inhibition, read-out: DOHH2 IC50
[3] = RS4, 11 (ATCC CRL-1873) cell proliferation, 30000 cells/well, 72 h, MTS, mechanism-based readout of Bcl-2 inhibition, 11 IC50
[4] = DOHH2 (DSMZ ACC 47) cell proliferation, 5000 cells/well, 120 h, MTS, mechanism-based readout of Bcl-2 inhibition, read-out: DOHH2 IC50

Structure (SMILES) | IC50 (RS4; 11 cells; [1]) [nM] | IC50 (DOHH2 cells; [2]) [nM] | also measured
CCS(=O)(CC)=NC1CCC(CNc2ccc(S(=O)(=O)NC(=O)c3ccc(N4CCN(CC5=C(c6ccc(Cl)cc6)CC(C)(C)CC5)CC4)cc3Oc3cnc4[nH]ccc4c3)cc2[N+](=O)[O-])CC1 (stereo not drawn) [Example 9B, 2-((1H-pyrrolo[2,3-b]pyridin-5-yl)oxy)-4-(4-((4′-chloro-5,5-dimethyl-3,4,5,6-tetrahydro-[1,1′-biphenyl]-2-yl)methyl)piperazin-1-yl)-N-((4-((((1r,4r)-4-((diethyl(oxo)-λ^6-sulfanylidene)amino)cyclohexyl)methyl)amino)-3-nitrophenyl)sulfonyl)benzamide] | – | – | IC50 (RS4; 11 cells; Homo sapiens, RS4-11, 72 h, 11 IC50 (nM)): 5 nM; IC50 (DOHH2 cells; Homo sapiens, DOHH-2, 120 h, read-out: DOHH2 IC50 (nM)): 11 nM
CC1(C)CCC(CN2CCN(c3ccc(C(=O)NS(=O)(=O)c4ccc(NCC(CF)N5CCP(C)(=O)CC5)c([N+](=O)[O-])c4)c(Oc4cnc5[nH]ccc5c4)c3)CC2)=C(c2ccc(Cl)cc2)C1 (stereo not drawn) [Example 13, 2-((1H-pyrrolo[2,3-b]pyridin-5-yl)oxy)-4-(4-((4′-chloro-5,5-dimethyl-3,4,5,6-tetrahydro-[1,1′-biphenyl]-2-yl)methyl)piperazin-1-yl)-N-((4-((3-fluoro-2-(4-methyl-4-oxido-1,4-azaphosphinan-1-yl)propyl)amino)-3-nitrophenyl)sulfonyl)benzamide] | 397 | 615 | –
C[C@@H](CN1CCS(=O)(=NC2CC2)CC1)Nc1ccc(S(=O)(=O)NC(=O)c2ccc(N3CCN(CC4=C(c5ccc(Cl)cc5)CC(C)(C)CC4)CC3)cc2Oc2cnc3[nH]ccc3c2)cc1[N+](=O)[O-] [Example 39, (S)-2-((1H-pyrrolo[2,3-b]pyridin-5-yl)oxy)-4-(4-((4′-chloro-5,5-dimethyl-3,4,5,6-tetrahydro-[1,1′-biphenyl]-2-yl)methyl)piperazin-1-yl)-N-((4-((1-(1-(cyclopropylimino)-1-oxido-1λ^6-thiomorpholino)propan-2-yl)amino)-3-nitrophenyl)sulfonyl)benzamide] | 40 | 163 | –
CC1(C)CCC(CN2CCN(c3ccc(C(=O)NS(=O)(=O)c4ccc(NCC5CCC(NS(C)(=N)=O)CC5)c([N+](=O)[O-])c4)c(Oc4cnc5[nH]ccc5c4)c3)CC2)=C(c2ccc(Cl)cc2)C1 (stereo not drawn) [Example 56, 4-(4-{[2-(4-chlorophenyl)-4,4-dimethylcyclohexyl-1-en-1-yl]methyl}piperazin-1-yl)-N-(4-{[(4-methanesulfono-imidamidocyclohexyl)methyl]amino}-3-nitrobenzenesulfonyl)-2-{1H-pyrrolo[2,3-b]pyridine-5-yloxy}benzamide] | – | – | IC50 (RS4; 11 cells; [3]): 12 nM; IC50 (DOHH2 cells; [4]): 50 nM
C[C@@H](CN1CCP(C)(=O)CC1)Nc1ccc(S(=O)(=O)NC(=O)c2ccc(N3CCN(CC4=C(c5ccc(Cl)cc5)CC(C)(C)CC4)CC3)cc2Oc2cnc3[nH]ccc3c2)cc1S(=O)(=O)C(F)(F)F [Example 49, (S)-2-((1H-pyrrolo[2,3-b]pyridin-5-yl)oxy)-4-(4-((4′-chloro-5,5-dimethyl-3,4,5,6-tetrahydro-[1,1′-biphenyl]-2-yl)methyl)piperazin-1-yl)-N-((4-((1-(4-methyl-4-oxido-1,4-azaphosphinan-1-yl)propan-2-yl)amino)-3-((trifluoromethyl)sulfonyl)phenyl)sulfonyl)benzamide] | 54 | 107 | –
CC1(C)CCC(CN2CCN(c3ccc(C(=O)NS(=O)(=O)c4ccc(NCC5CCC(N=S(C)(C)=O)CC5)c([N+](=O)[O-])c4)c(Oc4cnc5[nH]ccc5c4)c3)CC2)=C(c2ccc(Cl)cc2)C1 (single isomer, unassigned) [Example 50B, 2-((1H-pyrrolo[2,3-b]pyridin-5-yl)oxy)-4-(4-((4′-chloro-5,5-dimethyl-3,4,5,6-tetrahydro-[1,1′-biphenyl]-2-yl)methyl)piperazin-1-yl)-N-((4-(((4-((dimethyl(oxo)-λ^6-sulfanylidene)amino)cyclohexyl)methyl)amino)-3-nitrophenyl)sulfonyl) benzamide] | – | – | IC50 (RS4; 11 cells; [3]): 4 nM; IC50 (DOHH2 cells; [4]): 13.4 nM
CC1(C)CCC(CN2CCN(c3ccc(C(=O)NS(=O)(=O)c4ccc(NC(CF)CN5CCP(C)(=O)CC5)c([N+](=O)[O-])c4)c(Oc4cnc5[nH]ccc5c4)c3)CC2)=C(c2ccc(Cl)cc2)C1 (stereo not drawn) [Example 20, 2-((1H-pyrrolo[2,3-b]pyridin-5-yl)oxy)-4-(4-((4′-chloro-5,5-dimethyl-3,4,5,6-tetrahydro-[1,1′-biphenyl]-2-yl)methyl)piperazin-1-yl)-N-((4-((1-fluoro-3-(4-methyl-4-oxido-1,4-azaphosphinan-1-yl)propan-2-yl)amino)-3-nitrophenyl)sulfonyl)benzamide] | 333 | 388 | –

Now from value to molecule, other results behind:

IC50 (RS4; 11 cells; [1]) [nM] | Structure (SMILES) | IC50 (DOHH2 cells; [2]) [nM] | also measured
68 | CCOC(=O)N=S1(=O)CCN(C[C@H](C)Nc2ccc(S(=O)(=O)NC(=O)c3ccc(N4CCN(CC5=C(c6ccc(Cl)cc6)CC(C)(C)CC5)CC4)cc3Oc3cnc4[nH]ccc4c3)cc2[N+](=O)[O-])CC1 [Example 72, ethyl (S)-(4-(2-((4-(N-(2-((1H-pyrrolo[2,3-b]pyridin-5-yl)oxy)-4-(4-((4′-chloro-5,5-dimethyl-3,4,5,6-tetrahydro-[1,1′-biphenyl]-2-yl)methyl)piperazin-1-yl)benzoyl)sulfamoyl)-2-nitrophenyl)amino)propyl)-1-oxido-1λ^6-thiomorpholin-1-ylidene) carbamate] | 119 | –
94 | CC(C)OC(=O)N=S1(=O)CCN(C[C@H](C)Nc2ccc(S(=O)(=O)NC(=O)c3ccc(N4CCN(CC5=C(c6ccc(Cl)cc6)CC(C)(C)CC5)CC4)cc3Oc3cnc4[nH]ccc4c3)cc2[N+](=O)[O-])CC1 [Example 73, isopropyl (S)-(4-(2-((4-(N-(2-((1H-pyrrolo[2,3-b]pyridin-5-yl)oxy)-4-(4-((4′-chloro-5,5-dimethyl-3,4,5,6-tetrahydro-[1,1′-biphenyl]-2-yl)methyl)piperazin-1-yl)benzoyl)sulfamoyl)-2-nitrophenyl)amino)propyl)-1-oxido-1λ^6-thiomorpholin-1-ylidene)carbamate] | 263 | –
116 | CC(C)C(=O)N=S1(=O)CCN(CC[C@H](C)Nc2ccc(S(=O)(=O)NC(=O)c3ccc(N4CCN(CC5=C(c6ccc(Cl)cc6)CC(C)(C)CC5)CC4)cc3Oc3cnc4[nH]ccc4c3)cc2S(=O)(=O)C(F)(F)F)CC1 [Example 90, (S)-2-((1H-pyrrolo[2,3-b]pyridin-5-yl)oxy)-4-(4-((4′-chloro-5,5-dimethyl-3,4,5,6-tetrahydro-[1,1′-biphenyl]-2-yl)methyl)piperazin-1-yl)-N-((4-((4-(1-(isobutyrylimino)-1-oxido-1λ^6-thiomorpholino)butan-2-yl)amino)-3-((trifluoromethyl)sulfonyl)phenyl)sulfonyl) benzamide] | 225 | –
20 | C[C@@H](CCN1CCC(N=S(C)(C)=O)CC1)Nc1ccc(S(=O)(=O)NC(=O)c2ccc(N3CCN(CC4=C(c5ccc(Cl)cc5)CC(C)(C)CC4)CC3)cc2Oc2cnc3[nH]ccc3c2)cc1[N+](=O)[O-] [Example 96, (S)-2-((1H-pyrrolo[2,3-b]pyridin-5-yl)oxy)-4-(4-((4′-chloro-5,5-dimethyl-3,4,5,6-tetrahydro-[1,1′-biphenyl]-2-yl)methyl)piperazin-1-yl)-N-((4-((4-(4-((dimethyl(oxo)-λ^6-sulfanylidene)amino)piperidin-1-yl)butan-2-yl)amino)-3-nitrophenyl)sulfonyl) benzamide] | 26 | –
7 | CC1(C)CCC(CN2CCN(c3ccc(C(=O)NS(=O)(=O)c4ccc(NCC5CCC(N=S6(=O)CCCC6)CC5)c([N+](=O)[O-])c4)c(Oc4cnc5[nH]ccc5c4)c3)CC2)=C(c2ccc(Cl)cc2)C1 (stereo not drawn) [Example 53, 2-((1H-pyrrolo[2,3-b]pyridin-5-yl)oxy)-4-(4-((4′-chloro-5,5-dimethyl-3,4,5,6-tetrahydro-[1,1′-biphenyl]-2-yl)methyl)piperazin-1-yl)-N-((3-nitro-4-(((4-((1-oxidotetrahydro-1λ^6-thiophen-1-ylidene)amino)cyclohexyl)methyl)amino)phenyl)sulfonyl)benzamide] | 11 | –
